Experimental data: patent publication US8541575B2, “3,4-diarylpyrazoles as protein kinase inhibitors” (Nerviano Medical Sciences S.R.L., priority 2008, dated 2013)

Assays:
Format in all cases: cell-based
[1] = tested on: human melanoma cells A375 (with a mutated B-RAF); test: In vitro cell proliferation assay, A375; conditions: A-375, 72 hours treatment, cellular ATP readout
Protocol: (§1) In Vitro Cell Proliferation Assay
(§2) Exponentially growing human melanoma cells A375 (with a mutated B-RAF) and human melanoma cells Mewo (with wild-type B-Raf) were seeded and incubated at 37° C. in a humidified 5% CO2 atmosphere. After 24 hours, scalar doses of the compound were added to the medium and cells oncubated for 72 hours. At the end of treatment, cells were washed and counted. Cell number was determined by a cellular adenosine triphosphate monitoring system. Cell proliferation was compared to control cells and the concentration inhibiting cell growth by 50% was calculated.

[2] = tested on: human melanoma cells Mewo (with wild-type B-Raf); test: In vitro cell proliferation assay, Mewo; conditions: 72 hours treatment, cellular ATP readout
Protocol: as §1, §2

[3] = tested on: p-MAPK (T202/Y204) in A375 human melanoma cells, having a mutated B-RAF; test: p-MAPK (T202/Y204) ArrayScan assay; conditions: A-375, treated 1.5 or 2 hours, p-MAPK cytoplasmatic fluorescence, read-out: Array Scan A375 IC50
Protocol: p-MAPK (T202/Y204) ArrayScan Assay
A375 human melanoma cells, having a mutated B-RAF, are seeded in 384-well poly-lysine coated plates (Matrix) at a density of 1000 cells/well with appropriate medium supplemented with 10% FCS and incubated for 16-24 hours. Cells are treated for 1.5 or 2 hours with increasing doses of compounds (starting dose 10 μM, dilution factor 2.5). At the end of the treatment cells are fixed with p-formaldehyde 3.7% for 15-30 min, then washed twice with D-PBS […] and permeabilized with D-PBS containing 0.1% Triton X-100 and 1% BSA (Sigma-Aldrich) for 15 minutes at room temperature (staining solution). Anti-phospho-MAPK (T202/Y204) monoclonal antibody E10 (Cell Signaling, cat. #9106) diluted 1:100 is added in staining solution and incubated for 1 hour at 37° C. After removal of the primary antibody solution, the anti-mouse Cy™2-conjugated (Green) secondary antibody (Amersham) diluted 1:500 in staining solution containing 2 μg/ml DAPI is added. The plate is incubated for 1 hour at 37° C., washed twice and then red with Cellomics' ArrayScan VTI (4 fields/well, CytoNucTrans algorithm).
The parameter “MEAN_RingAvgIntenCh2”, which measures the mean cytoplasmatic fluorescence intensity associated to p-MAPK staining, is reported as the final result.

SMILES	IC50 [1]	IC50 [2]	IC50 [3]
CCC(=O)Nc1cc(-c2c[nH]nc2-c2cccc(NC(=O)Nc3ccc(C(F)(F)F)cc3)c2)ccn1 [compound 39, N-(4-{3-[3-({[4-(trifluoromethyl)phenyl]carbamoyl}amino)phenyl]-1H-pyrazol-4-yl}pyridin-2-yl)propanamide]	1.14 µM	> 10 µM	2.32 µM
CC(C)C(=O)Nc1cc(-c2c[nH]nc2-c2cccc(NC(=O)Nc3ccc(C(F)(F)F)cc3)c2)ccn1 [compound 40, 2-methyl-N-(4-{3-[3-({[4-(trifluoromethyl)phenyl]carbamoyl}amino)phenyl]-1H-pyrazol-4-yl}pyridin-2-yl)propanamide]	3.63 µM	> 10 µM	1.75 µM
O=C(CCCO)Nc1cc(-c2c[nH]nc2-c2cccc(NC(=O)Nc3ccc(C(F)(F)F)cc3)c2)ccn1 [compound 43, 4-hydroxy-N-(4-{3-[3-({[4-(trifluoromethyl)phenyl]carbamoyl}amino)phenyl]-1H-pyrazol-4-yl}pyridin-2-yl)butanamide]	3.5 µM	> 10 µM	0.41 µM
CCCCn1cc(-c2ccncc2)c(-c2cccc(NC(=O)Nc3ccc(C(F)(F)F)cc3)c2)n1 [compound 49, 1-[3-(1-Butyl-4-pyridin-4-yl-1H-pyrazol-3-yl)-phenyl]-3-(4-trifluoromethyl-phenyl)-urea]	2.61 µM	4.54 µM	1.59 µM
Cn1cc(-c2ccncc2)c(-c2c(F)ccc(NS(=O)(=O)c3cc(F)ccc3F)c2F)n1 [compound 52, N-[3-(1-Methyl-4-pyridin-4-yl-1H-pyrazol-3-yl)-2,4-difluoro-phenyl]-2,5-difluoro-benzenesulfonamide]	0.16 µM	> 10 µM	< 0.01 µM
CNc1cc(-c2c[nH]nc2-c2c(F)ccc(NS(=O)(=O)c3cc(F)ccc3F)c2F)ccn1 [compound 53, N-{2,4-Difluoro-3-[4-(2-methylamino-pyridin-4-yl)-1H-pyrazol-3-yl]-phenyl}-2,5-difluoro-benzenesulfonamide]	1.75 µM	> 10 µM	0.87 µM
CCNc1cc(-c2c[nH]nc2-c2c(F)ccc(NS(=O)(=O)c3cc(F)ccc3F)c2F)ccn1 [compound 54, N-{3-[4-(2-Ethylamino-pyridin-4-yl)-1H-pyrazol-3-yl]-2,4-difluoro-phenyl}-2,5-difluoro-benzenesulfonamide]	0.97 µM	> 10 µM	0.31 µM
CCNc1nccc(-c2c[nH]nc2-c2cccc(NS(=O)(=O)c3cc(F)ccc3F)c2)n1 [compound 55, N-(3-{4-[2-(ethylamino)pyrimidin-4-yl]-1H-pyrazol-3-yl}phenyl)-2,5-difluorobenzenesulfonamide]	1.25 µM	> 10 µM	0.17 µM
CC(C)Cn1cc(-c2ccncc2)c(-c2c(F)ccc(NS(=O)(=O)c3cc(F)ccc3F)c2F)n1 [compound 56, N-[3-(1-i-Butyl-4-pyridin-4-yl-1H-pyrazol-3-yl)-2,4-difluoro-phenyl]-2,5-difluoro-benzenesulfonamide]	< 0.02 µM	> 10 µM	< 0.01 µM
